According to patent US20260285888A1, “HETEROCYCLIC COMPOUND AND USE THEREOF” (OTSUKA PHARMACEUTICAL CO., LTD., priority 2023, published 2026):

Columns and labels:
[1] = in vitro; format: cell-based, human; settings: human, differentiated hl-60 cells, 300 μmol/L, about 24 hours, PMA-differentiated HL-60 cells, LDH; no-treatment 0%, cell lysis buffer 100%; read-out: cytotoxicity (%) Evaluation compound results
Method: An HL-60 cell line (human acute promyelocytic leukemia cells) was successively cultured in RPMI 1640 containing 20% fetal bovine serum (FBS) at 37° C. in 95% atmosphere/5% CO2. Before evaluation, the cells were pre-cultured for about 72 hours in the presence of 10 nM phorbol 12-myristate 13-acetate (PMA) to induce macrophage-like differentiation.
Evaluation compounds were dissolved in DMSO to obtain 30 mmol/L solutions (or suspensions). Each DMSO solution was diluted 100-fold with RPMI 1640 containing 2% FBS (final concentration of the compound: 300 μmol/L) to obtain a treatment solution. The culture supernatant of the differentiated HL-60 cells was removed, and each treatment solution was added and cultured for about 24 hours, followed by cytotoxicity evaluation.
The activity of lactate dehydrogenase (LDH) was measured in the treatment solutions exposed to the cells for about 24 hours by using a commercial kit (Cytotoxicity LDH Assay Kit-WST, Dojindo Laboratories) and a plate reader (Tecan Infinite M1000). The obtained measurement values were used to calculate cytotoxicity (%) as comparison values for each evaluation compound-treated group, with the no-treatment group taken as 0% and the cell lysis buffer-treated group taken as 100%. The test was conducted in triplicate in three wells each, and the average values were used as adopted values.

[2] = Study for confirmation of conversion to brexpiprazole in a buffer (stability of the evaluation compounds); format: physicochemical; settings: in buffer, average of duplicate; for Concentration of brexpiprazole formed: 60-minute reaction sample; for Concentration of evaluation compound decreased: decrease in 60-minute vs 0-minute reaction sample
In short: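 Compounds (final 1 μmol/L, from 100 μmol/L working solutions) incubated in buffer at 37° C. for 0 or 60 min, in duplicate, after 3 min pre-incubation of the reaction solution. Reactions stopped with acetonitrile/isopropanol (4:1) containing internal standards; compound and formed brexpiprazole quantified against 0.01–1 μmol/L calibration samples.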

Concentration of brexpiprazole formed [2] [nM]	Concentration of evaluation compound decreased [2] [nM]	Structure (SMILES)	cytotoxicity at 24 h, 300 µM [1] [%]
0	0	O=c1ccc2ccc(OCCCC[N+]3(COP(=O)([O-])O)CCN(c4cccc5sccc45)CC3)cc2[nH]1 [EX 2, (4-(benzo[b]thiophen-4-yl)-1-((4-((2-oxo-1,2-dihydroquinolin-7-yl)oxy)butyl)piperazin-1-ium-1-yl)methyl hydrogen phosphate]	-7
0	-20	O=c1ccc2ccc(OCCCC[N+]3(COP(=O)([O-])OCCCCO)CCN(c4cccc5sccc45)CC3)cc2[nH]1 [EX 10, (4-(benzo[b]thiophen-4-yl)-1-(4-((2-oxo-1,2-dihydroquinolin-7-yl)oxy)butyl)piperazin-1-ium-1-yl)methyl (4-hydroxybutyl) phosphate]	-6
0	30	O=c1ccc2ccc(OCCCC[N+]3(COP(=O)([O-])OCCCCCCCCO)CCN(c4cccc5sccc45)CC3)cc2[nH]1 [EX 11, (4-(benzo[b]thiophen-4-yl)-1-(4-((2-oxo-1,2-dihydroquinolin-7-yl)oxy)butyl)piperazin-1-ium-1-yl)methyl (8-hydroxyoctyl) phosphate]	16
0	20	COCCOP(=O)([O-])OC[N+]1(CCCCOc2ccc3ccc(=O)[nH]c3c2)CCN(c2cccc3sccc23)CC1 [EX 12, (4-(benzo[b]thiophen-4-yl)-1-(4-((2-oxo-1,2-dihydroquinolin-7-yl)oxy)butyl)piperazin-1-ium-1-yl)methyl (2-methoxyethyl) phosphate]	-7
0	-110	CC(C)C(=O)OCOP(=O)([O-])OC[N+]1(CCCCOc2ccc3ccc(=O)[nH]c3c2)CCN(c2cccc3sccc23)CC1 [EX 24, (4-(benzo[b]thiophen-4-yl)-1-(4-((2-oxo-1,2-dihydroquinolin-7-yl)oxy)butyl)piperazin-1-ium-1-yl)methyl ((isobutyryloxy)methyl) phosphate]	10
0	50	CCCCCCCC(=O)OC(C)OP(=O)([O-])OC[N+]1(CCCCOc2ccc3ccc(=O)[nH]c3c2)CCN(c2cccc3sccc23)CC1 (stereo not shown) [EX 26, (4-(benzo[b]thiophen-4-yl)-1-(4-((2-oxo-1,2-dihydroquinolin-7-yl)oxy)butyl)piperazin-1-ium-1-yl)methyl (1-(octanoyloxy)ethyl) phosphate]	-5
-10	-70	COCCC(=O)OCOP(=O)([O-])OC[N+]1(CCCCOc2ccc3ccc(=O)[nH]c3c2)CCN(c2cccc3sccc23)CC1 [EX 28, (4-(benzo[b]thiophen-4-yl)-1-(4-((2-oxo-1,2-dihydroquinolin-7-yl)oxy)butyl)piperazin-1-ium-1-yl)methyl (((3-methoxypropanoyl)oxy)methyl) phosphate]	-8
0	-10	CCOCCC(=O)OCOP(=O)([O-])OC[N+]1(CCCCOc2ccc3ccc(=O)[nH]c3c2)CCN(c2cccc3sccc23)CC1 [EX 29, (4-(benzo[b]thiophen-4-yl)-1-(4-((2-oxo-1,2-dihydroquinolin-7-yl)oxy)butyl)piperazin-1-ium-1-yl)methyl (((3-ethoxypropanoyl)oxy)methyl) phosphate]	-4
0	10	CCOC(=O)CC(C)(C)CC(=O)OCOP(=O)([O-])OC[N+]1(CCCCOc2ccc3ccc(=O)[nH]c3c2)CCN(c2cccc3sccc23)CC1 [EX 32, (4-(benzo[b]thiophen-4-yl)-1-(4-((2-oxo-1,2-dihydroquinolin-7-yl)oxy)butyl)piperazin-1-ium-1-yl)methyl (((5-ethoxy-3,3-dimethyl-5-oxopentanoyl)oxy)methyl) phosphate]	5
0	0	COCCOC(=O)OCOP(=O)([O-])OC[N+]1(CCCCOc2ccc3ccc(=O)[nH]c3c2)CCN(c2cccc3sccc23)CC1 [EX 33, (4-(benzo[b]thiophen-4-yl)-1-(4-((2-oxo-1,2-dihydroquinolin-7-yl)oxy)butyl)piperazin-1-ium-1-yl)methyl ((((2-methoxyethoxy)carbonyl)oxy)methyl) phosphate]	-7
0	10	COCCOCCOC(=O)OCOP(=O)([O-])OC[N+]1(CCCCOc2ccc3ccc(=O)[nH]c3c2)CCN(c2cccc3sccc23)CC1 [EX 34, (4-(benzo[b]thiophen-4-yl)-1-(4-((2-oxo-1,2-dihydroquinolin-7-yl)oxy)butyl)piperazin-1-ium-1-yl)methyl (3-oxo-2,4,7,10-tetraoxaundecyl) phosphate]	-10
0	-20	COCCOCCOCCOC(=O)OCOP(=O)([O-])OC[N+]1(CCCCOc2ccc3ccc(=O)[nH]c3c2)CCN(c2cccc3sccc23)CC1 [EX 35, (4-(benzo[b]thiophen-4-yl)-1-(4-((2-oxo-1,2-dihydroquinolin-7-yl)oxy)butyl)piperazin-1-ium-1-yl)methyl (3-oxo-2,4,7,10,13-pentaoxatetradecyl) phosphate]	-9
0	60	CC(O)CCOP(=O)([O-])OC[N+]1(CCCCOc2ccc3ccc(=O)[nH]c3c2)CCN(c2cccc3sccc23)CC1 (stereo not shown) [EX 40, (4-(benzo[b]thiophen-4-yl)-1-(4-((2-oxo-1,2-dihydroquinolin-7-yl)oxy)butyl)piperazin-1-ium-1-yl)methyl (3-hydroxybutyl) phosphate]	-5
0	70	CC(C)(O)CCOP(=O)([O-])OC[N+]1(CCCCOc2ccc3ccc(=O)[nH]c3c2)CCN(c2cccc3sccc23)CC1 [EX 41, (4-(benzo[b]thiophen-4-yl)-1-(4-((2-oxo-1,2-dihydroquinolin-7-yl)oxy)butyl)piperazin-1-ium-1-yl)methyl (3-hydroxy-3-methylbutyl) phosphate]	-3
		O=C(OCCCO)OCOP(=O)([O-])OC[N+]1(CCCCOc2ccc3ccc(=O)[nH]c3c2)CCN(c2cccc3sccc23)CC1 [EX 131, (4-(benzo[b]thiophen-4-yl)-1-(4-((2-oxo-1,2-dihydroquinolin-7-yl)oxy)butyl)piperazin-1-ium-1-yl)methyl ((((3-hydroxypropoxy)carbonyl)oxy)methyl) phosphate]	10
		CCC(=O)OP(=O)([O-])OC[N+]1(CCCCOc2ccc3ccc(=O)[nH]c3c2)CCN(c2cccc3sccc23)CC1 [EX 148, (4-(benzothiophen-4-yl)-1-(4-((2-oxo-1H-quinolin-7-yl)oxy)butyl)piperazin-1-ium-1-yl)methyl propanoyl phosphate]	-5
		CC(C)C(=O)OP(=O)([O-])OC[N+]1(CCCCOc2ccc3ccc(=O)[nH]c3c2)CCN(c2cccc3sccc23)CC1 [EX 149, (4-(benzothiophen-4-yl)-1-(4-((2-oxo-1H-quinolin-7-yl)oxy)butyl)piperazin-1-ium-1-yl)methyl 2-methylpropanoyl phosphate]	-3
		O=C(OC[N+]1(CCCCOc2ccc3ccc(=O)[nH]c3c2)CCN(c2cccc3sccc23)CC1)N1CCCCC1 [REX 4, 4-(benzo[b]thiophen-4-yl)-1-(4-((2-oxo-1,2-dihydroquinolin-7-yl)oxy)butyl)-1-(((piperidine-1-carbonyl)oxy)methyl)piperazin-1-ium iodide, reference compound]	83

Structure (SMILES)	Concentration of brexpiprazole formed [2] [nM]	Concentration of evaluation compound decreased [2] [nM]	cytotoxicity at 24 h, 300 µM [1] [%]
COCCCCOC(=O)OCOP(=O)([O-])OC[N+]1(CCCCOc2ccc3ccc(=O)[nH]c3c2)CCN(c2cccc3sccc23)CC1 [EX 36, (4-(benzo[b]thiophen-4-yl)-1-(4-((2-oxo-1,2-dihydroquinolin-7-yl)oxy)butyl)piperazin-1-ium-1-yl)methyl ((((4-methoxybutoxy)carbonyl)oxy)methyl) phosphate]	0	-40	-10
